Laboratory results from article PMC12528448, “Resistance to CDK7 inhibitors directed by acquired mutation of a conserved residue in cancer cells” (The EMBO Journal, 2025).
Where “and” joins values, the source holds several entries; their conditions need not be identical. Identical values can stand only once.

Tests used:
CDK7-WT = target: T1, CDK7-WT (Homo sapiens, UniProt P50613); test: NanoBRET Target Engagement assay, K-10 tracer displacement in HEK293 cells; format: binding; conditions: CDK7 WT, replicates N1-N3
T1 construct: expressed in transfected cells; host or cells: HEK293
T1 sequence (P50613 whole entry): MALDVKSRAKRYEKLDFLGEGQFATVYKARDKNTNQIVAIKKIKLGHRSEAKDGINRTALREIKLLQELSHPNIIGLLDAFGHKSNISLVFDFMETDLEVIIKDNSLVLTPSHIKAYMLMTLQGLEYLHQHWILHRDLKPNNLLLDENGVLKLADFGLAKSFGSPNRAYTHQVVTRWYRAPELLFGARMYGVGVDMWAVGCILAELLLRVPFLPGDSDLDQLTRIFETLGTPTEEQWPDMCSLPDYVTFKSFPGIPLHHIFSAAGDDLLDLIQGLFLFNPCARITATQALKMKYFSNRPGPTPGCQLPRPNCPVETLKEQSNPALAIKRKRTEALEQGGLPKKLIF
Description: Energy transfer between the NanoLuc fusion protein and a cell-permeable fluorescent energy transfer probe facilitates quantitative determination of target engagement in live cells (Wells et al, [2020]). Assays were conducted according to this previous report, using the optimal CDK7 probe, K-10, at a concentration of 0.5 µM.
CDK4, CDK6 and CDK7 and the respective mutant sequences, obtained as synthesised DNA fragments from IDT (Leuven), were cloned by HiFi DNA assembly (New England Biolabs) into the pNLF1-N NanoLuc protein fusion vector (Promega). HEK293 cells, transiently transfected with NanoLuc-CDK fusion constructs, were used for activity determination, utilising the NanoBRET Target Engagement Intracellular Kinase Assay. A CCND1 expression construct was co-transfected with the NanoLuc-CDK4 and NanoLuc-CDK6 fusion constructs. The recommended cell-permeable energy transfer probe, K-10, was used to assess target engagement, as detailed in the manufacturer’s methods (Promega). […] The BRET ratio (mBU) was calculated as acceptor emission (590–610 nm)/donor emission (410–490 nm) × 1000. The mBU values were plotted against the energy probe concentrations to determine maximal binding (Bmax) and Kd values. BRET signal competition by CDK inhibitors was used to determine compound binding to WT and mutant CDKs. […] Inhibitor binding was determined using a fourfold dilution series. mBU values were plotted against test compound concentrations in the presence of K10 tracer. EC50 values were determined using nonlinear regression curve-fitting. Test compound occupancy (%) was calculated using the equation [1 − (x − z)/(y − z)] × 100, where x = mBU in the presence of the test compound and K-10 tracer, y = mBU with K-10 tracer and vehicle control, and z = mBU in the absence of the K-10 tracer or test compound (Wells et al, [2020]).

22Rv1 cells = test: Growth assay (SRB), 22Rv1; format: cell-based, human; conditions: 22Rv1, 4 days, biological reps
Description: (§1) To determine the IC50 of drug treatments on growth, cells were seeded in 96-well culture plates. Two days after seeding, the cells were treated with increasing concentrations of drugs and incubated for 4 days. Cell number was determined using the SRB assay (Skehan et al, [1990]), and IC50 values were calculated using non-linear regression curve fitting in GraphPad Prism v10. For all other growth experiments, cells were seeded into 96-well plates, and appropriate drugs were added 2 days after seeding. Cells were then incubated in an IncuCyte Zoom live-cell imager, with cell confluency measured every 6 h. Cell doubling times were determined by non-linear curve fitting (exponential growth equation) in GraphPad Prism v10.

MCF7 cells = test: Growth assay (SRB), MCF7; format: cell-based, human; conditions: for % Growth: biological reps
Description: as §1

MCF7-CDK7-D97N cells = test: Growth assay (SRB), MCF7 CDK7-D97N knock-in; format: cell-based, human; conditions: 4 days; for % Growth: MCF7 CDK7 D99N, biological reps
Description: as §1
Alt-R^TM S.p. Cas9 nuclease V3, Alt-R CRISPR-Cas9 crRNA, TracrRNA and the donor templates were obtained from Integrated DNA Technologies. […] Cells were treated with 0.7 µM of Alt-R HDR Enhancer V2 to improve HRD efficiency. Sequences of the CRISPRs in the crRNA and the donor templates are shown in the Reagents and tools table. Donor templates were designed to include non-coding substitutions to aid genome DNA PCR for identifying knock-in events and to facilitate cloning; these substitutions are noted in the Reagents and tools table.

22Rv1-SamR cells = test: Growth assay (SRB), Samuraciclib-resistant 22Rv1; format: cell-based, human; conditions: for % Growth: 22Rv1 SamR, 4 days, biological reps
Description: as §1

% Occupacy (CDK7-WT; Log10 Conc. (nM) 0.09): 16.74% and 4.33% and 5.86%
% Occupacy (CDK7-WT; Log10 Conc. (nM) 0.69): 17.70% and 6.32% and 7.28%
% Occupacy (CDK7-WT; Log10 Conc. (nM) 1.29): 29.22% and 3.65% and 10.56%
% Occupacy (CDK7-WT; Log10 Conc. (nM) 1.89): 53.51% and 14.09% and 19.55%
% Occupacy (CDK7-WT; Log10 Conc. (nM) 2.49): 85.19% and 65.85% and 67.10%
% Occupacy (CDK7-WT; Log10 Conc. (nM) 3.10): 97.70% and 100.48% and 92.33%
% Occupacy (CDK7-WT; Log10 Conc. (nM) 3.70): 102.14% and 100.08% and 100.97%
% Occupacy (CDK7-WT; Log10 Conc. (nM) 4.30): 101.17% and 106.00% and 102.12%
% Occupacy (CDK7-WT; Log10 Conc. (nM) -0.52): 21.00% and 8.28% and 9.27%
% Occupacy (CDK7-WT; Log10 Conc. (nM) -1.12): 15.97% and 8.08% and 8.28%
% Occupacy (CDK7-WT; Log10 Conc. (nM) -1.72): 12.78% and 7.38% and 8.51%
IC50 (MCF7 cells; 4 days, SRB): 153 nM
IC50 (MCF7-CDK7-D97N cells; MCF7-CDK7-D97N, SRB): 68.7 nM
Compound: CN(C)C/C=C/C(=O)Nc1ccc(C(=O)Nc2cccc(Nc3ncc(Cl)c(-c4c[nH]c5ccccc45)n3)c2)cc1 [THZ1]
% Growth (22Rv1 cells; Log10 Conc. (nM) 0.09): 93.20% and 88.05%
% Growth (22Rv1 cells; Log10 Conc. (nM) 0.69): 85.45% and 77.80%
% Growth (22Rv1 cells; Log10 Conc. (nM) 1.29): 56.44% and 44.90%
% Growth (22Rv1 cells; Log10 Conc. (nM) 1.89): 5.80% and -0.07%
% Growth (22Rv1 cells; Log10 Conc. (nM) 2.49): -4.12% and -6.31%
% Growth (22Rv1 cells; Log10 Conc. (nM) 3.10): -6.49% and -7.67%
% Growth (22Rv1 cells; Log10 Conc. (nM) 3.70): -6.63% and -7.61%
% Growth (22Rv1 cells; Log10 Conc. (nM) -0.52): 98.36% and 93.94%
% Growth (22Rv1 cells; Log10 Conc. (nM) -1.12): 96.18% and 94.83%
% Growth (MCF7 cells; Log10 Conc. (nM) 0.09, 4 days): 91.30% and 94.59% and 94.55%
% Growth (MCF7 cells; Log10 Conc. (nM) 0.69, 4 days): 87.28% and 92.52% and 92.40%
% Growth (MCF7 cells; Log10 Conc. (nM) 1.29, 4 days): 80.95% and 90.37% and 89.19%
% Growth (MCF7 cells; Log10 Conc. (nM) 1.89, 4 days): 64.20% and 77.72% and 79.90%
% Growth (MCF7 cells; Log10 Conc. (nM) 3.10, 4 days): -9.63% and -1.23% and -2.34%
% Growth (MCF7 cells; Log10 Conc. (nM) 3.70, 4 days): -9.74% and -3.96% and -4.65%
% Growth (MCF7 cells; Log10 Conc. (nM) -0.52, 4 days): 92.77% and 97.61% and 102.10%
% Growth (MCF7 cells; Log10 Conc. (nM) -1.12, 4 days): 92.06% and 94.91% and 96.97%
% Growth (MCF7-CDK7-D97N cells; Log10 Conc. (nM) 0.09): 97.12% and 98.47% and 91.37%
% Growth (MCF7-CDK7-D97N cells; Log10 Conc. (nM) 0.69): 86.82% and 92.10% and 89.13%
% Growth (MCF7-CDK7-D97N cells; Log10 Conc. (nM) 1.29): 76.30% and 76.07% and 72.54%
% Growth (MCF7-CDK7-D97N cells; Log10 Conc. (nM) 1.89): 35.33% and 47.81% and 46.77%
% Growth (MCF7-CDK7-D97N cells; Log10 Conc. (nM) 2.49): -1.00% and 8.40% and 7.81%
% Growth (MCF7-CDK7-D97N cells; Log10 Conc. (nM) -0.52): 99.89% and 102.56% and 100.45%
% Growth (MCF7-CDK7-D97N cells; Log10 Conc. (nM) -1.12): 96.07% and 101.58% and 94.36%
Sensitivity in growth assays (22Rv1-SamR cells; 22Rv1-SamR): remained sensitive
% Growth (22Rv1-SamR cells; Log10 Conc. (nM) 0.09): 83.75% and 87.25%
% Growth (22Rv1-SamR cells; Log10 Conc. (nM) 0.69): 68.41% and 67.61%
% Growth (22Rv1-SamR cells; Log10 Conc. (nM) 1.29): 30.25% and 41.41%
% Growth (22Rv1-SamR cells; Log10 Conc. (nM) 1.89): -7.69% and -2.73%
% Growth (22Rv1-SamR cells; Log10 Conc. (nM) 2.49): -11.43% and -7.53%
% Growth (22Rv1-SamR cells; Log10 Conc. (nM) 3.10): -11.82% and -8.43%
% Growth (22Rv1-SamR cells; Log10 Conc. (nM) 3.70): -15.22% and -10.53%
% Growth (22Rv1-SamR cells; Log10 Conc. (nM) -0.52): 93.15% and 99.90%
% Growth (22Rv1-SamR cells; Log10 Conc. (nM) -1.12): 93.43% and 95.60%
